The text below walks through data of ChEMBL document CHEMBL5505963, “Novel berberine derivatives as p300 histone acetyltransferase inhibitors in combination treatment for breast cancer” (Eur J Med Chem, 2024).

Test [1] deals with Histone acetyltransferase p300 (Homo sapiens, UniProt Q09472). The experiment in a line: Inhibition of p300 HAT (unknown origin) using 3H-acetyl-CoA as substrate assessed as H3 peptide acetylation preincubated with compound for 15 mins followed by substrate addition and measured after 30 mins by microbeta scintillation counter analysis.
Test [2] concerns MCF7. The experiment in a line: Antiproliferative activity against human MCF7 cells assessed as inhibition of cell growth incubated for 48 hrs by MTT assay. Conditions: MCF7, 48 h. The class given is functional, cell-based. Background: Formazan colour is commonly taken as a measure of viable cells.
For a further test, the system named is LNCaP. Put plainly: Antiproliferative activity against human LNCaP cells assessed as inhibition of cell growth incubated for 48 hrs by MTT assay. The class given is functional, cell-based.
In the next test the test system is PANC-1. The experiment in a line: Antiproliferative activity against human PANC-1 cells assessed as inhibition of cell growth incubated for 48 hrs by MTT assay. The class given is functional, cell-based. The following applies: PANC-1, 48 h.
Test [3] deals with MCF-10A. The experiment in a line: Antiproliferative activity against human MCF-10A cells assessed as inhibition of cell growth incubated for 48 hrs by MTT assay. Format: functional, cell-based.
Test [4] relates to MCF-10A. Put plainly: Antiproliferative activity against human MCF-10A cells assessed as inhibition of cell growth at 50 uM incubated for 48 hrs by MTT assay relative to control. The class given is functional.
The test system of test [5] is MCF7. The experiment in a line: Antiproliferative activity against human MCF7 cells assessed as inhibition of cell proliferation incubated for 48 hrs by MTT assay. Format: functional, cell-based. The following applies: MCF7, 48 h.
Test [6] has as its system MCF7. Put plainly: Induction of apoptosis in human MCF7 cells assessed as upregulation of cleaved caspase 3 level at 1 microg/ml incubated for 24 hrs by Western blot analysis. The class given is functional, cell-based. The following applies: dose 1.0 µg/ml. For orientation: A western blot detects proteins with antibodies after separation by electrophoresis.
The test system of test [7] is MCF7. Put plainly: Induction of apoptosis in human MCF7 cells assessed as upregulation of cleaved PARP level at 1 microg/ml uM incubated for 24 hrs by Western blot analysis. The class given is functional, cell-based. The following applies: dose 1.0 µg/ml.
Test [8] has as its system MCF7. The experiment in a line: Downregulation of survivin level in human MCF7 cells at 1 microg/ml incubated for 24 hrs by Western blot analysis. Format: functional, cell-based. Conditions: dose 1.0 µg/ml.
In test [9] the test system is MCF7. The experiment in a line: Inhibition of cell migration in human MCF7 cells assessed as reduction in scratch measured after 24 hrs by microscopic analysis. The class given is functional.
Test [10] relates to MCF7. The experiment in a line: Inhibition of cell invasion in human MCF7 cells measured after 24 hrs by crystal violet staining based microscopic analysis. Format: functional.
The subject of test [11] is MCF7. The experiment in a line: Antitumor activity against human MCF7 cells xenografted in BALB/c nude mouse assessed as tumor growth inhibition at 2 mg/kg, ip measured upto 14 days. Format: functional. The following applies: MCF7, 336 h, time <= 14 day, read-out: TGI. In general terms: Xenograft models place foreign cells or tissue in a host animal.

pIC50: −log10 of the molar value. The source made the active and inactive calls. No cut-off for these calls is given here. Bounds are passed on as bounds.

Sequence of Histone acetyltransferase p300 (Q09472 whole entry): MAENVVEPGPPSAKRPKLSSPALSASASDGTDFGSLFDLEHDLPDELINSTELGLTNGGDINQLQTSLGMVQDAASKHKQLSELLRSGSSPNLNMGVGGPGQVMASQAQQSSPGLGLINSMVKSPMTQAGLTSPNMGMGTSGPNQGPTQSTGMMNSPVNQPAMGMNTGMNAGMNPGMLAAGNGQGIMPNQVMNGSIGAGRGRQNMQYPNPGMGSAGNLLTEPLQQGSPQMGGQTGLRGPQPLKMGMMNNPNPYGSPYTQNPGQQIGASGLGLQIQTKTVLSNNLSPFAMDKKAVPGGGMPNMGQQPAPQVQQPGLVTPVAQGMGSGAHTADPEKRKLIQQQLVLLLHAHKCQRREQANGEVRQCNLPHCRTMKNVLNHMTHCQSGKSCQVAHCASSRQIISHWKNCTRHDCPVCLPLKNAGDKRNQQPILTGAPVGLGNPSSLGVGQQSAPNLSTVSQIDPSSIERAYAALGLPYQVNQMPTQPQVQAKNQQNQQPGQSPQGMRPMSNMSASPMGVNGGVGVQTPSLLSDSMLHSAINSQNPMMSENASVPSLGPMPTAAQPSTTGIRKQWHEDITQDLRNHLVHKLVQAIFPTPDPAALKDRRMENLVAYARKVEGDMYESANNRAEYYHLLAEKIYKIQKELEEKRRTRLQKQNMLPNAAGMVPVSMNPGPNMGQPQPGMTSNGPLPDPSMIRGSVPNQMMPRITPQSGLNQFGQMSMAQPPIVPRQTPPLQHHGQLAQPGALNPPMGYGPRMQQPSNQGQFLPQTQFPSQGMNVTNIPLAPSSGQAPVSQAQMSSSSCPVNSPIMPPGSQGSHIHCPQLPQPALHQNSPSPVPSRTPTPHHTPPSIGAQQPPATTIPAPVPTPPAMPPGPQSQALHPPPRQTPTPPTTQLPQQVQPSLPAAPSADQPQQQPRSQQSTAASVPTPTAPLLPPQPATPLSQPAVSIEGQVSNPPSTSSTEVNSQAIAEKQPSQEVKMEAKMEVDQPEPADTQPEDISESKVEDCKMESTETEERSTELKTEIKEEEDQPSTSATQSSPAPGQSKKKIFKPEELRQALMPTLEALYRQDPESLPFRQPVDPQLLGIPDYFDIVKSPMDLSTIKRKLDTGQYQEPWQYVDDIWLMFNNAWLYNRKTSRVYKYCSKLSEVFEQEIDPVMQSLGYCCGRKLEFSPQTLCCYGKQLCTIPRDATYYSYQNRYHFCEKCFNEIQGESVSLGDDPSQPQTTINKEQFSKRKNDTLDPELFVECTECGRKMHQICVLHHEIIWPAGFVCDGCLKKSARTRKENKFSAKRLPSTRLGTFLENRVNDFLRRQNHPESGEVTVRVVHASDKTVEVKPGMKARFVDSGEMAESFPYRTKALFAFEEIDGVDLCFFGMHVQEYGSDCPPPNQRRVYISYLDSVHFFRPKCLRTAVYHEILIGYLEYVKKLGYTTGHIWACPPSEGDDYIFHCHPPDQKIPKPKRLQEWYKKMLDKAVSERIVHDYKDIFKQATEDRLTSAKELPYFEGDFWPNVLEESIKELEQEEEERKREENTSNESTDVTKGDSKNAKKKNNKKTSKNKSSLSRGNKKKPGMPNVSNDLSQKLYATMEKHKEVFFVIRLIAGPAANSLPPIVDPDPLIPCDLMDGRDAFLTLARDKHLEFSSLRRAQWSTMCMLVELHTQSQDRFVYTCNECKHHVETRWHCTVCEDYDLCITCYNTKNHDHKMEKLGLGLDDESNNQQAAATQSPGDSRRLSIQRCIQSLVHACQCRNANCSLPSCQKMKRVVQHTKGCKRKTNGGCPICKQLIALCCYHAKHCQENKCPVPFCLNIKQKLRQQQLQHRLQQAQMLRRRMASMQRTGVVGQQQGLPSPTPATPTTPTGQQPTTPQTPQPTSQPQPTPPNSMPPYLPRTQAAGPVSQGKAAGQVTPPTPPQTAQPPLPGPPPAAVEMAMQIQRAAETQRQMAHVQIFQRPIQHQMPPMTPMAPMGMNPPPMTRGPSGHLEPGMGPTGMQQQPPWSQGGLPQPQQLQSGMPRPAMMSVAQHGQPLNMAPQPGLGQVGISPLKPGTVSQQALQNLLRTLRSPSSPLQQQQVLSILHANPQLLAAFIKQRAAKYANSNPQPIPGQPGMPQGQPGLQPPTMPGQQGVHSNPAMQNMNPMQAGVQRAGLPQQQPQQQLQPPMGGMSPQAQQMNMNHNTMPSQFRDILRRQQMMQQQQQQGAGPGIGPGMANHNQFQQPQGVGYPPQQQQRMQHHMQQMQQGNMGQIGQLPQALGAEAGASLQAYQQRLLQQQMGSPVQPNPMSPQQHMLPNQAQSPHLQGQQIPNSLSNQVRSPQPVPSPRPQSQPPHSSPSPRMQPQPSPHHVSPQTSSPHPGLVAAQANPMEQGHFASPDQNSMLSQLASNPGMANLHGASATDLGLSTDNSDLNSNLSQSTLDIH

In general, pIC50 refers to −log10 of the IC50, conventionally taken in molar units. For the molecule `COc1cc2cc3[n+](cc2cc1OC)CCSc1cc2c(cc1-3)OCO2`, the pIC50 in test [1] was 5.33; in the test on MCF7 [2], 4.46; with LNCaP it was 4.54; in the test with PANC-1, 4.31; with MCF-10A [3] it was < 4.30.
In the case of `COc1cc2cc3[n+](cc2cc1OC)CCCCOc1cc2c(cc1-3)OCO2`, the negative-log IC50 (pIC50) in test [1] was < 4.70.
On the same count and under the same terms, the same measure for `COc1ccc2cc3[n+](cc2c1OC)CCCSc1cc2c(cc1-3)OCO2`: < 4.70; for `C1=CC2C=C3c4cc5c(cc4NCC[N+]3=CC2S1)OCO5` (stereo not drawn): 5.15.
Same read-out and setting: as for `C1=CC2C=C3c4cc5c(cc4OCC[N+]3=CC2S1)OCO5` (stereo not drawn), the figure is 5.03.
`COc1ccc2cc3[n+](cc2c1OC)CCSc1cc2c(cc1-3)OCO2`: the pIC50 in test [1] is 4.99.
On the same count and under the same terms, the same measure for `COc1ccc2cc3[n+](cc2c1OC)CCc1c-3oc2ccccc12`: < 4.70.
Consider `COc1cc2cc3[n+](cc2cc1OC)CCNc1cc2c(cc1-3)OCO2`, for which the pIC50 in [1] is 5.47; in the test with MCF7 [2], 4.44; in the test on LNCaP it was < 4.30; with PANC-1 it was < 4.30; in the test on MCF-10A [3], < 4.30.
For the molecule `COc1cc2cc3[n+](cc2cc1OC)CCCNc1cc2c(cc1-3)OCO2`, the pIC50 in test [1] is 5.01.
The same measure, in the same setting: as for `COc1cc2cc3[n+](cc2cc1OC)CCCS(=O)(=O)c1cc2c(cc1-3)OCO2`, the figure is < 4.70.
The same measure, in the same setting: the same measure for `COc1cc2cc3[n+](cc2cc1OC)CCS(=O)(=O)c1cc2c(cc1-3)OCO2`: 4.95.
The term inhibition denotes the percentage by which the read-out fell short of the control. As for `COc1cc2cc3[n+](cc2cc1OC)CC(C)COc1cc2c(cc1-3)OCO2` (stereo not drawn), the pIC50 is 5.32 in test [1]; 4.53 with MCF7 [2]; 4.39 in the test with LNCaP; 4.47 in the test on PANC-1; < 4.30 in the test on MCF-10A [3]. Besides, the inhibition at 50 µM in the test on MCF-10A [4] is 77%.
Regarding `COc1cccc2c1C(=O)c1c(O)c3c(c(O)c1C2=O)C[C@@](O)(C(=O)CO)C[C@@H]3O[C@H]1C[C@H](N)[C@H](O)[C@H](C)O1` [DOXORUBICIN], the pIC50 in the test on MCF7 [5] is 5.61. Also, the outcome in the test on MCF7 [6] and in the test with MCF7 [7] was inactive. Further, the outcome in the test with MCF7 [8] was Active. Also, the “inhibition (INH)” value in the test on MCF7 [9] amounted to 62.43%. The inhibition result with MCF7 [10] is “Active”. Also, the inhibition in vivo at 2 mg/kg in the test with MCF7 [11] worked out at 64.3%.
In the case of `COc1ccc2cc3[n+](cc2c1OC)CCc1ccsc1-3`, in test [1], the pIC50 is < 4.70.
As for `COc1cc2cc3[n+](cc2cc1OC)CCCSc1cc2c(cc1-3)OCO2`, in [1], the pIC50 was 4.94.
Same read-out and setting: as for `COc1ccc2cc3[n+](cc2c1OC)CCOc1cc2c(cc1-3)OCO2`, the figure is 5.10.
Still for that read-out and setting: as for `COc1ccc2cc3[n+](cc2c1OC)CCCNc1cc2c(cc1-3)OCO2`, the figure is < 4.70; as for `COc1ccc2cc3[n+](cc2c1OC)CCCOc1cc2c(cc1-3)OCO2`, < 4.70.
Still for that read-out and setting: as for `COc1cc2cc3[n+](cc2cc1OC)CCN(C(C)=O)c1cc2c(cc1-3)OCO2`, the figure is 4.76.
Take `COc1cc2cc3[n+](cc2cc1OC)CCCOc1cc2c(cc1-3)OCO2`: the pIC50 in test [1] was 5.43; with MCF7 [2], 4.42; with LNCaP it was 4.47; with PANC-1, 4.41; in the test with MCF-10A [3] it was < 4.30.
With `COc1cc2cc3[n+](cc2cc1OC)CCOCCOc1cc2c(cc1-3)OCO2`, the pIC50 in test [1] was 5.23.
Consider `COc1ccc2cc3[n+](cc2c1OC)CCc1cc2c(cc1-3)OCO2` [BERBERINE CHLORIDE], for which the pIC50 in test [1] is 5.05; with MCF7 [2] it was < 4.30; in the test on LNCaP, < 4.30; in the test on PANC-1 it was < 4.30; in the test with MCF-10A [3] it was < 4.30.
Consider `COc1ccc2cc3[n+](cc2c1OC)CCNc1cc2c(cc1-3)OCO2`, for which the pIC50 in test [1] is 5.17.
Turning to `CNC(=O)Nc1ccc2c(c1)CC[C@@]21OC(=O)N(CC(=O)N(Cc2ccc(F)cc2)[C@@H](C)C(F)(F)F)C1=O` [A-485], the pIC50 in the test on MCF7 [2] is < 4.52; in the test on LNCaP, 5.77; in the test with PANC-1 it was < 4.52.
